Assay results from patent US20240158369A1, “PYRIMIDINE COMPOUND AS WEE-1 INHIBITOR” (WIGEN BIOMEDICINE TECHNOLOGY (SHANGHAI) CO., LTD., priority 2021, published 2024).

Molecular target: recombinant protein Wee-1 (Homo sapiens (Human), UniProt P30291)
Test: HTRF assay for inhibiting enzymatic activity of recombinant protein Wee-1
Format: biochemical
Details: compounds up to 200 nM, read-out: (IC50) Inhibitory activity against recombinant protein Wee-1
Description: The inhibitory effect of the compounds on the enzyme activity of recombinant protein Wee-1 was determined by HTRF. The procedures are as follows:
After DMSO or serially diluted compounds (up to 200 nM, 1:5 diluted) and recombinant proteins were co-incubated in a kinase buffer at 37° C. for 30 min before Fluorescein-PolyGAT and ATP were added, and the reaction was initiated by addition of a substrate. After incubation at room temperature for 90 min, an antibody and a detection solution were added, and after further incubation at room temperature for 60 min, fluorescence values were detected (excitation wavelength: 340 nm, emission wavelengths: 495 and 520 nm). The 520 nm/495 nm fluorescence intensity ratio value was calculated, and compared with that of the DMSO group, and then the inhibition percentages and IC50 values of the compounds were calculated.

recombinant protein Wee-1, sequence (P30291 whole entry): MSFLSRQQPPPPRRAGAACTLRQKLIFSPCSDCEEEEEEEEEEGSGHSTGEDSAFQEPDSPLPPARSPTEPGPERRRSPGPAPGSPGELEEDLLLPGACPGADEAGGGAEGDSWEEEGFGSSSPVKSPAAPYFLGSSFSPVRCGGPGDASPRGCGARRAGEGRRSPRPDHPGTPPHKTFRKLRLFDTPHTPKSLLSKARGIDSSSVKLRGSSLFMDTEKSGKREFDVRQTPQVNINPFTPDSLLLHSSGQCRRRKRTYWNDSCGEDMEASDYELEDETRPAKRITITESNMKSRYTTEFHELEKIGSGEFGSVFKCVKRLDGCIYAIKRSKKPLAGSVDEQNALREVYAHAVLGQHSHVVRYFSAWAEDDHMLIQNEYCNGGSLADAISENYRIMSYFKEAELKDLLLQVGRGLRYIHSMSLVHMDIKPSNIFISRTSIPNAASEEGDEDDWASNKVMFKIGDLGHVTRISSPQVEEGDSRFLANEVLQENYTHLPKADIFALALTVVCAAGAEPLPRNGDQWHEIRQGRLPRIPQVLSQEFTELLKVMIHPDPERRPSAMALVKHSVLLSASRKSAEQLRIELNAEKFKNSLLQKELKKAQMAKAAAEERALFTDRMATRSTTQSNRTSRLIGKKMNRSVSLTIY

SMILES	IC50 [nM]
CN1CCc2c(cc(Nc3ncc(C#N)c(Nc4cccc(N=S(C)(C)=O)n4)n3)cc2C(C)(C)C)C1 [Compound 86]	≤ 10
CN1CCc2c(cc(Nc3ncc(C#N)c(Nc4ccc(F)c(N=S(C)(C)=O)n4)n3)cc2C2CCCC2)C1 [Compound 99]	≤ 10
CN1CCc2c(cc(Nc3ncc(C#N)c(Nc4ccc(F)c(N=S(C)(C)=O)n4)n3)cc2C2CCC2)C1 [Compound 98]	≤ 10
CN1CCc2ccc(Nc3ncc(C#N)c(Nc4ccnc(N=S(C)(C)=O)n4)n3)cc2C1 [Compound 69]	≤ 10
CCc1cc(Nc2ncc(C#N)c(Nc3ccnc(N=S(C)(C)=O)n3)n2)cc2c1CCN(C)C2 [Compound 144]	≤ 10
CCc1cc(Nc2ncc(C#N)c(Nc3cncc(N=S(C)(C)=O)n3)n2)cc2c1CCN(C)C2 [Compound 142]	≤ 10
CN1CCc2c(CCN)cc(Nc3ncc(C#N)c(Nc4cccc(N=S(C)(C)=O)n4)n3)cc2C1 [Compound 135]	≤ 10
CC(C)Oc1cc(Nc2ncc(C#N)c(Nc3ccc(F)c(N=S(C)(C)=O)n3)n2)cc2c1CCN(C)C2 [Compound 93]	≤ 10
CN(C)C1CCCc2ccc(Nc3ncc(C#N)c(Nc4cccc(N=S(C)(C)=O)n4)n3)cc2C1 (stereo not shown) [Compound 53]	≤ 10
CN1CCc2c(cc(Nc3ncc(C#N)c(Nc4cccc(N=S(C)(C)=O)n4)n3)cc2N2CCC2)C1 [Compound 95]	≤ 10
CCc1cc(Nc2ncc(C#N)c(Nc3cccc(N=S(C)(C)=O)n3)n2)cc2c1C1(CC1)CN(C)C2 [Compound 31]	≤ 10
CN1CCc2c(cc(Nc3ncc(C#N)c(Nc4cccc(N=S(C)(C)=O)n4)n3)cc2N(C)C)C1 [Compound 44]	≤ 10
CCc1cc(Nc2ncc(C#N)c(Nc3cccc(N=S(C)(C)=O)n3)n2)cc2c1C(C)(C)CN(C)C2 [Compound 37]	≤ 10
CN1CCc2c(cc(Nc3ncc(C#N)c(Nc4cccc(N=S(C)(C)=O)n4)n3)cc2-c2ccncc2)C1 [Compound 126]	≤ 10
CN1CCc2ccc(Nc3ncc(C#N)c(Nc4nc(N=S(C)(C)=O)cc5ccccc45)n3)cc2C1 [Compound 72]	≤ 10
Cc1cc(Nc2ncc(C#N)c(Nc3ccc(F)c(N=S(C)(C)=O)n3)n2)cc2c1CCN(C)C2 [Compound 73]	≤ 10
Cc1cc(Nc2ncc(C#N)c(Nc3cc(F)cc(N=S(C)(C)=O)n3)n2)cc2c1CCN(C)C2 [Compound 74]	≤ 10
CN1CCc2c(cc(Nc3ncc(C#N)c(Nc4nccc(N=S(C)(C)=O)n4)n3)cc2C2CC2)C1 [Compound 139]	≤ 10
CCCc1cc(Nc2ncc(C#N)c(Nc3cccc(N=S(C)(C)=O)n3)n2)cc2c1CCN(C)C2 [Compound 149]	≤ 10
CCc1cc(Nc2ncc(C#N)c(Nc3cccc(N=S4(=O)CCC4)n3)n2)cc2c1CCN(C)C2 [Compound 159]	≤ 10
COCCN1CCc2ccc(Nc3ncc(C#N)c(Nc4cccc(N=S(C)(C)=O)n4)n3)cc2C1 [Compound 49]	≤ 10
COc1cc(Nc2ncc(C#N)c(Nc3cccc(N=S(C)(C)=O)n3)n2)cc2c1C(C)(C)CN(C)C2 [Compound 40]	≤ 10
COc1cc(Nc2ncc(C#N)c(Nc3ccc(F)c(N=S(C)(C)=O)n3)n2)cc2c1CCN(C)C2 [Compound 90]	≤ 10
CN1CCc2c(cc(Nc3ncc(C#N)c(Nc4ccnc(N=S(C)(C)=O)n4)n3)cc2C2CC2)C1 [Compound 140]	≤ 10

SMILES	IC50 [nM]
COc1cc(Nc2ncc(C#N)c(Nc3cccc(N=S(C)(C)=O)n3)n2)cc2c1C1(CC1)CN(C)C2 [Compound 34]	≤ 10
Cc1cc(Nc2ncc(C#N)c(Nc3nc(N=S(C)(C)=O)ccc3F)n2)cc2c1CCN(C)C2 [Compound 75]	≤ 10
CN1CCc2c(cc(Nc3ncc(C#N)c(Nc4cncc(N=S(C)(C)=O)n4)n3)cc2C2CC2)C1 [Compound 138]	≤ 10
CCN1CCc2ccc(Nc3ncc(C#N)c(Nc4cccc(N=S(C)(C)=O)n4)n3)cc2C1 [Compound 45]	≤ 10
Cc1cc(Nc2ncc(C#N)c(Nc3ccc4c(n3)N=S(C)(=O)C4)n2)cc2c1CCN(C)C2 (stereo not shown) [Compound 88]	> 50
CN(C)C1CC=Cc2ccc(Nc3ncc(C#N)c(Nc4cccc(N=S(C)(C)=O)n4)n3)cc2C1 (stereo not shown) [Compound 56]	≤ 10
CCc1cc(Nc2ncc(C#N)c(Nc3cccc(N=S(=O)(CC)CC)n3)n2)cc2c1CCN(C)C2 [Compound 158]	≤ 10
CN1CCCc2ccc(Nc3ncc(C#N)c(Nc4cccc(N=S(C)(C)=O)n4)n3)cc2C1 [Compound 54]	≤ 10
CN1CCSc2ccc(Nc3ncc(C#N)c(Nc4cccc(N=S(C)(C)=O)n4)n3)cc2C1 [Compound 58]	≤ 10
CN1CCc2ccc(Nc3ncc(C#N)c(Nc4nc(N=S(C)(C)=O)cc5[nH]ccc45)n3)cc2C1 [Compound 81]	≤ 10
COc1ccc(Nc2nc(Nc3ccc4c(c3)CN(C)CC4)ncc2C#N)nc1N=S(C)(C)=O [Compound 84]	≤ 10
Cc1cc(Nc2ncc(C#N)c(Nc3cccc(N=S(C)(C)=O)n3)n2)cc2c1C(C)(C)CN(C)C2 [Compound 36]	≤ 10
CN1CCc2c(cc(Nc3ncc(C#N)c(Nc4ccc(F)c(N=S(C)(C)=O)n4)n3)cc2N2CCC2)C1 [Compound 96]	≤ 10
CC(C)c1cc(Nc2ncc(C#N)c(Nc3cccc(N=S(C)(C)=O)n3)n2)cc2c1C(C)(C)CN(C)C2 [Compound 38]	≤ 10
CN1CCc2ccc(Nc3ncc(C#N)c(Nc4nc(N=S(C)(C)=O)cc5c4CCN5)n3)cc2C1 [Compound 82]	≤ 10
CCc1cc(Nc2ncc(C#N)c(Nc3ccc(F)c(N=S(C)(C)=O)n3)n2)cc2c1CCN(C)C2 [Compound 89]	≤ 10
CN1CCc2ccc(Nc3ncc(C#N)c(-n4ccc5c(N=S(C)(C)=O)cccc54)n3)cc2C1 [Compound 76]	≤ 10
CN1Cc2ccc(Nc3ncc(C#N)c(Nc4cccc(N=S(C)(C)=O)n4)n3)cc2C1 [Compound 59]	≤ 10
CCc1cc(Nc2ncc(C#N)c(Nc3nccc(N=S(C)(C)=O)n3)n2)cc2c1CCN(C)C2 [Compound 143]	≤ 10
CN1Cc2cc(Nc3ncc(C#N)c(Nc4cccc(N=S(C)(C)=O)n4)n3)ccc2C(C)(C)C1 [Compound 35]	≤ 10
CN1Cc2cc(Nc3ncc(C#N)c(Nc4cccc(N=S(C)(C)=O)n4)n3)cc(C3CC3)c2C2(CC2)C1 [Compound 32]	≤ 10
CN(C)CCN1CCc2ccc(Nc3ncc(C#N)c(Nc4cccc(N=S(C)(C)=O)n4)n3)cc2C1 [Compound 50]	≤ 10
CN1CCc2c(CC3CCC3)cc(Nc3ncc(C#N)c(Nc4cccc(N=S(C)(C)=O)n4)n3)cc2C1 [Compound 125]	≤ 10
CC(C)Oc1cc(Nc2ncc(C#N)c(Nc3cccc(N=S(C)(C)=O)n3)n2)cc2c1CCN(C)C2 [Compound 24]	≤ 10

SMILES	IC50 [nM]
CN1CCc2ccc(Nc3ncc(C#N)c(Nc4nccc(N=S(C)(C)=O)n4)n3)cc2C1 [Compound 70]	≤ 10
CN1CCc2ccc(Nc3ncc(C#N)c(Nc4ccnc(N=S(C)(C)=O)c4)n3)cc2C1 [Compound 65]	≤ 10
CN1CCc2ccc(Nc3ncc(C#N)c(Nc4cc5ccccc5c(N=S(C)(C)=O)n4)n3)cc2C1 [Compound 71]	≤ 10
CN1CCc2ccc(Nc3ncc(C#N)c(Nc4cc(N=S(C)(C)=O)ccn4)n3)cc2C1 [Compound 67]	≤ 10
CN(C)C1CCc2ccc(Nc3ncc(C#N)c(Nc4cccc(N=S(C)(C)=O)n4)n3)cc2C1 (stereo not shown) [Compound 51]	≤ 10
CCc1cc(Nc2ncc(C#N)c(Nc3cccc(N=S4(=O)CCCC4)n3)n2)cc2c1CCN(C)C2 [Compound 160]	≤ 10
CC(C)c1cc(Nc2ncc(C#N)c(Nc3cccc(N=S(C)(C)=O)n3)n2)cc2c1C1(CC1)CN(C)C2 [Compound 33]	≤ 10
CN1CCc2c(cc(Nc3ncc(C#N)c(Nc4ccc(F)c(N=S(C)(C)=O)n4)n3)cc2C2(C)CC2)C1 [Compound 102]	≤ 10
Cc1cc(Nc2ncc(C#N)c(Nc3cccc(N=S(C)(C)=O)n3)n2)cc2c1C1(CC1)CN(C)C2 [Compound 30]	≤ 10
CN1CCc2c(cc(Nc3ncc(C#N)c(Nc4ccc(F)c(N=S(C)(C)=O)n4)n3)cc2C2CC2)C1 [Compound 94]	≤ 10
CN1CCOc2ccc(Nc3ncc(C#N)c(Nc4cccc(N=S(C)(C)=O)n4)n3)cc2C1 [Compound 57]	≤ 10
CCc1cc(Nc2ncc(C#N)c(Nc3cccc(N=S(C)(=O)CC)n3)n2)cc2c1CCN(C)C2 (stereo not shown) [Compound 157]	≤ 10
CCOc1cc(Nc2ncc(C#N)c(Nc3cccc(N=S(C)(C)=O)n3)n2)cc2c1CCN(C)C2 [Compound 23]	≤ 10
CN1CCc2c(cc(Nc3ncc(C#N)c(Nc4cccc(N=S(C)(C)=O)n4)n3)cc2-c2ccoc2)C1 [Compound 114]	≤ 10
CN1CCc2c(CN)cc(Nc3ncc(C#N)c(Nc4cccc(N=S(C)(C)=O)n4)n3)cc2C1 [Compound 134]	≤ 10
CN1CCc2c(Br)cc(Nc3ncc(C#N)c(Nc4cccc(N=S(C)(C)=O)n4)n3)cc2C1 [Compound 27]	≤ 10
CN1CCc2c(cc(Nc3ncc(C#N)c(Nc4cccc(N=S(C)(C)=O)n4)n3)cc2C(F)F)C1 [Compound 21]	≤ 10
CC(C)c1cc(Nc2ncc(C#N)c(Nc3ccc(F)c(N=S(C)(C)=O)n3)n2)cc2c1CCN(C)C2 [Compound 91]	≤ 10
CN1CCc2ccc(Nc3ncc(C#N)c(Nc4cncc(N=S(C)(C)=O)c4)n3)cc2C1 [Compound 66]	≤ 10
CN1CCc2c(cc(Nc3ncc(C#N)c(Nc4ccc(F)c(N=S(C)(C)=O)n4)n3)cc2C2=CCCC2)C1 [Compound 100]	≤ 10
CN1CCc2c(Cl)cc(Nc3ncc(C#N)c(Nc4cccc(N=S(C)(C)=O)n4)n3)cc2C1 [Compound 26]	≤ 10
CS(C)(=O)=Nc1cccc(Nc2nc(Nc3ccc4c(c3)CN(CCO)CC4)ncc2C#N)n1 [Compound 48]	≤ 10
